The supplement of paper PMC10307832

Legend:
Experiment in all cases: relative viability (nuclei count vs DMSO), 5 days (fraction); higher = more cells survive
[1] = compound: COc1cc2/c(=N/c3ccc(Br)cc3F)nc[nH]c2cc1OCC1CCN(C)CC1 [Vandetanib] + Cc1cc(Nc2cc(N3CCN(C)CC3)nc(Sc3ccc(NC(=O)C4CC4)cc3)n2)n[nH]1 [Tozasertib] (partner 0.1 µM)
Outline: (§1)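 Lung cancer cell lines, seeded in 1536-well plates, were treated the following day by pin tool with a single drug or with five library-drug doses (not always all listed) in √10 steps on top of a fixed anchor-drug dose. Cells were fixed and nuclei stained in one step after 5 days, and nuclei were counted. Relative viability is the nuclei count for treated wells divided by that for vehicle wells, reported as medians of duplicate plates.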

[2] = compound: COc1cc(N2CCC(N3CCN(C)CC3)CC2)ccc1Nc1ncc(Cl)c(Nc2ccccc2S(=O)(=O)C(C)C)n1 [NVP-TAE684] + COc1cc2c(Oc3ccc(NC(=O)C4(C(=O)Nc5ccc(F)cc5)CC4)cc3F)ccnc2cc1OCCCN1CCOCC1 [Foretinib] (partner 0.25 µM)
Outline: as §1

[3] = compound: C#Cc1cccc(Nc2ncnc3cc(OC)c(OCCCCCCC(=O)NO)cc23)c1 [CUDC-101] + CS(=O)(=O)N1CCN(Cc2cc3nc(-c4cccc5[nH]ncc45)nc(N4CCOCC4)c3s2)CC1 [Pictilisib] (partner 1 µM)
Outline: as §1

[4] = compound: C1=CC=C2C(=C1)N=C(S2)C(C#N)C3=NC(=NC=C3)NCCC4=CN=CC=C4 + O=C(CCCCCCC(=O)Nc1ccccc1)NO [Vorinostat] (partner 1 µM)
Outline: as §1

Row | Cell Line | relative viability ([1]; first compound 0.02 µM) | relative viability ([1]; first compound 0.06325 µM) | relative viability ([1]; first compound 0.2 µM) | relative viability ([1]; first compound 0.6325 µM) | relative viability ([1]; first compound 2 µM) | relative viability ([2]; first compound 0.2 µM) | relative viability ([2]; first compound 0.6325 µM) | relative viability ([2]; first compound 2 µM) | relative viability ([3]; first compound 0.01 µM) | relative viability ([3]; first compound 0.03162 µM) | relative viability ([3]; first compound 0.1 µM) | relative viability ([3]; first compound 0.3162 µM) | relative viability ([3]; first compound 1 µM) | relative viability ([4]; first compound 0.005 µM) | relative viability ([4]; first compound 0.01581 µM) | relative viability ([4]; first compound 0.05 µM) | relative viability ([4]; first compound 0.1581 µM) | relative viability ([4]; first compound 0.5 µM)
1 | RERF-LC-KJ | 0.549 | 0.515 | 0.491 | 0.439 | 0.477 | 0.853 | 0.931 | 0.771 | 0.465 | 0.518 | 0.511 | 0.485 | 0.376 | 0.603 | 0.623 | 0.609 | 0.7 | 0.578
2 | NCI-H1975 | 0.771 | 0.714 | 0.0829 | 0.685 | 0.74 | 1.2 | 0.911 | 0.497 | 0.336 | 0.323 | 0.265 | 0.24 | 0.192 | 0.712 | 0.743 | 0.747 | 0.834 | 0.571
3 | PC-3 [JPC-3] | 0.851 | 0.831 | 0.938 | 0.776 | 0.491 | 1.2 | 0.99 | 0.793 | 0.756 | 0.632 | 0.277 | 0.348 | 0.245 | 0.864 |  | 0.843 | 0.991 | 0.737
4 | EPLC-272H | 0.25 |  | 0.285 | 0.282 | 0.306 | 0.756 | 0.639 | 0.247 | 0.449 | 0.434 | 0.275 | 0.244 | 0.18 |  | 0.519 | 0.451 | 0.395 | 0.178
